Measured values taken from patent US20090155209A1, “NOVEL MACROCYCLIC INHIBITORS OF HEPATITIS C VIRUS REPLICATION” (priority 2007, published 2009).

Key:
NS3-NS4 [1] = biological target: T1, NS3-NS4 (Hepatitis C virus genotype 1a, UniProt P27958); assay: NS3-NS4 activity, IC50 (Example 37, Table 8); type: biochemical
NS3-NS4 [2] = biological target: T1, NS3-NS4; assay: cell-based; details: EC50, NS3-NS4 activity

T1 sequence (P27958 1027-1657): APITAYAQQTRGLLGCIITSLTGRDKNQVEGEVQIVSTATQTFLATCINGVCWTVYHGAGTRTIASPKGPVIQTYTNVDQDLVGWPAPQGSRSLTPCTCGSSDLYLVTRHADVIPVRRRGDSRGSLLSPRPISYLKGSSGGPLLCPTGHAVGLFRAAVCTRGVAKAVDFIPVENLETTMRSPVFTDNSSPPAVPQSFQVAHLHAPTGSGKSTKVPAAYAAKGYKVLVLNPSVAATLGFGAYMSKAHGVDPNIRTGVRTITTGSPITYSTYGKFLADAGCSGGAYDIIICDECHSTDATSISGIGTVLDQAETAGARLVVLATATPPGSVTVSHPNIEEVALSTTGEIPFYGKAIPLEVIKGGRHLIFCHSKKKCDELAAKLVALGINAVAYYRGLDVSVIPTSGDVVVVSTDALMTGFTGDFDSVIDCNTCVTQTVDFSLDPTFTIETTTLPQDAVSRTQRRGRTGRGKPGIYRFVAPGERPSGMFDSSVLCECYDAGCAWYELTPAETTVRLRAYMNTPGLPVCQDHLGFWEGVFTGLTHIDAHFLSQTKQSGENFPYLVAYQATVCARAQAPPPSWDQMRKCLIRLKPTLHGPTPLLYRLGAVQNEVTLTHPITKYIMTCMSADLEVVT
T1 sequence (P27958 1658-1711): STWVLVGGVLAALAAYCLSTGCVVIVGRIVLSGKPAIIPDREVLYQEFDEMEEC

| SMILES | IC50 (NS3-NS4 [1]) | EC50 (NS3-NS4 [2]) |
| --- | --- | --- |
| CC(C)(C)OC(=O)N[C@H]1CCCCC/C=C\[C@@H]2C[C@@]2(C(=O)NS(=O)(=O)Cc2ccc(Cl)cc2)NC(=O)[C@@H]2C[C@@H](OC(=O)N3Cc4cccc(F)c4C3)CN2C1=O [Compound 512] | < 100 nM | < 100 nM |
| Cc1ccc(ONC(=O)[C@@]23C[C@H]2CCCCCCC[C@H](NC(=O)OC(C)(C)C)C(=O)N2C[C@H](OC(=O)N4Cc5cccc(F)c5C4)C[C@H]2C(=O)N3)cc1 [Compound 808] | < 100 nM | 1000 to 10000 nM |
| CC(C)COC(=O)N[C@H]1CCCCC/C=C\[C@@H]2C[C@@]2(C(=O)NS(=O)(=O)C2CC2)NC(=O)[C@@H]2C[C@@H](OC(=O)N3Cc4cccc(F)c4C3)CN2C1=O [Compound 436] | < 100 nM | < 100 nM |
| CC(C)Oc1ccc(S(=O)(=O)NC(=O)[C@@]23C[C@H]2/C=C\CCCCC[C@H](NC(=O)OC(C)(C)C)C(=O)N2C[C@H](OC(=O)N4Cc5cccc(F)c5C4)C[C@H]2C(=O)N3)cc1 [Compound 356] | < 100 nM | < 100 nM |
| CC(C)(C)OC(=O)N[C@H]1CCCCC/C=C\[C@@H]2C[C@@]2(C(=O)NS(=O)(=O)c2ccc(Cl)cc2Cl)NC(=O)[C@@H]2C[C@@H](OC(=O)N3Cc4cccc(F)c4C3)CN2C1=O [Compound 348] | < 100 nM | < 100 nM |
| CCC(C)(C)OC(=O)N[C@H]1CCCCC/C=C\[C@@H]2C[C@@]2(C(=O)NS(=O)(=O)C2CC2)NC(=O)[C@@H]2C[C@@H](OC(=O)N3Cc4cccc(F)c4C3)CN2C1=O [Compound 405, (2R,6S,13aS,14aR,16aS,Z)-14a-(cyclopropylsulfonylcarbamoyl)-5,16-dioxo-6-(tert-pentyloxycarbonylamino)-1,2,3,5,6,7,8,9,10,11,13a,14,14a,15,16,16a-hexadecahydrocyclopropa[e]pyrrolo[1,2-a][1,4]diazacyclopentadecin-2-yl 4-fluoroisoindoline-2-carboxylate] | < 100 nM | < 100 nM |
| Cc1nc(N[C@H]2CCCCC/C=C\[C@@H]3C[C@@]3(C(=O)NS(=O)(=O)C3CC3)NC(=O)[C@@H]3C[C@@H](OC(=O)N4Cc5cccc(F)c5C4)CN3C2=O)sc1C [Compound 231] | < 100 nM | < 100 nM |
| CC(C)(C)OC(=O)N[C@H]1CCCCC/C=C\[C@@H]2C[C@@]2(C(=O)NS(=O)(=O)c2cccc(C(F)(F)F)c2)NC(=O)[C@@H]2C[C@@H](OC(=O)N3Cc4cccc(F)c4C3)CN2C1=O [Compound 308] | < 100 nM | < 100 nM |
| CC(C)(C)OC(=O)N[C@H]1CCCCC/C=C\[C@@H]2C[C@@]2(C(=O)NS(=O)(=O)c2ccccc2C(F)(F)F)NC(=O)[C@@H]2C[C@@H](OC(=O)N3Cc4cccc(F)c4C3)CN2C1=O [Compound 345] | < 100 nM | < 100 nM |
| CC(C)(C)ONC(=O)[C@@]12C[C@H]1CCCCCCC[C@H](NC(=O)OC(C)(C)C)C(=O)N1C[C@H](OC(=O)N3Cc4cccc(F)c4C3)C[C@H]1C(=O)N2 [Compound 815] | < 100 nM | < 100 nM |
| CC(C)(C)OC(=O)N[C@H]1CCCCC/C=C\[C@@H]2C[C@@]2(C(=O)NS(=O)(=O)C2(C)CC2)NC(=O)[C@@H]2C[C@@H](OC(=O)N3Cc4cccc(F)c4C3)CN2C1=O [Compound 444] | < 100 nM | < 100 nM |
| O=C1N[C@]2(C(=O)NS(=O)(=O)C3CC3)C[C@H]2/C=C\CCCCC[C@H](Nc2nc(-c3ccc(F)c(F)c3)cs2)C(=O)N2C[C@H](OC(=O)N3Cc4cccc(F)c4C3)C[C@@H]12 [Compound 223] | < 100 nM | < 100 nM |
| Cc1cccc(S(=O)(=O)NC(=O)[C@@]23C[C@H]2/C=C\CCCCC[C@H](NC(=O)OC(C)(C)C)C(=O)N2C[C@H](OC(=O)N4Cc5cccc(F)c5C4)C[C@H]2C(=O)N3)c1 [Compound 317] | < 100 nM | < 100 nM |
| COc1cccc(ONC(=O)[C@@]23C[C@H]2CCCCCCC[C@H](NC(=O)OC(C)(C)C)C(=O)N2C[C@H](OC(=O)N4Cc5cccc(F)c5C4)C[C@H]2C(=O)N3)c1 [Compound 801] | < 100 nM | 1000 to 10000 nM |
